In patent publication US8685967B2, “Substituted triazolopyridines and analogs thereof” (Merck Sharp & Dohme Corp., priority 2009, dated 2014):

What follows are compounds tested against T1, Human recombinant PDE10A1 (Homo sapiens, UniProt Q9Y233) (assay: In Vitro PDE10 Assay (scintillation proximity assay, [3H]cAMP)). Conditions: PDE10A1 0.02 nM, 10 nM [3H]cAMP, 30 minutes at room temperature; Ki by Cheng and Prusoff.
T1 construct: purchased BPS Bioscience, Inc
Type: biochemical
Procedure: PDE10A1 activity was measured in white opaque 384-well Opti-Plates (Perkin Elmer Life Sciences) using a scintillation proximity assay (GE Healthcare). Human recombinant PDE10A1 was purchased from BPS Bioscience, Inc. The reaction mixture contained PDE10A1 (0.02 nM), 10 nM [^3H]cAMP ([5′,8-^3H]Adenosine 3′,5′-cyclic phosphate, ammonium salt], Amersham) and various concentrations of compound in 50 mM Tris-HCl, pH 7.5, 8.3 mM MgCl2, […] and 0.2% bovine serum albumen in a total volume of 30 μl. The assay was initiated with the addition of substrate and was allowed to proceed for 30 minutes at room temperature before being stopped by the addition of 300 μg yttrium SPA PDE beads. The reaction mixtures were thoroughly mixed, and the beads were allowed to settle for 30 minutes. The plates were then counted in a TopCount scintillation counter. Under these conditions, less than 30% of the substrate was hydrolyzed in the absence of compound. Ki values were determined as described by Cheng and Prusoff (1973).

T1 sequence (Q9Y233 1-779 isoform Q9Y233-1): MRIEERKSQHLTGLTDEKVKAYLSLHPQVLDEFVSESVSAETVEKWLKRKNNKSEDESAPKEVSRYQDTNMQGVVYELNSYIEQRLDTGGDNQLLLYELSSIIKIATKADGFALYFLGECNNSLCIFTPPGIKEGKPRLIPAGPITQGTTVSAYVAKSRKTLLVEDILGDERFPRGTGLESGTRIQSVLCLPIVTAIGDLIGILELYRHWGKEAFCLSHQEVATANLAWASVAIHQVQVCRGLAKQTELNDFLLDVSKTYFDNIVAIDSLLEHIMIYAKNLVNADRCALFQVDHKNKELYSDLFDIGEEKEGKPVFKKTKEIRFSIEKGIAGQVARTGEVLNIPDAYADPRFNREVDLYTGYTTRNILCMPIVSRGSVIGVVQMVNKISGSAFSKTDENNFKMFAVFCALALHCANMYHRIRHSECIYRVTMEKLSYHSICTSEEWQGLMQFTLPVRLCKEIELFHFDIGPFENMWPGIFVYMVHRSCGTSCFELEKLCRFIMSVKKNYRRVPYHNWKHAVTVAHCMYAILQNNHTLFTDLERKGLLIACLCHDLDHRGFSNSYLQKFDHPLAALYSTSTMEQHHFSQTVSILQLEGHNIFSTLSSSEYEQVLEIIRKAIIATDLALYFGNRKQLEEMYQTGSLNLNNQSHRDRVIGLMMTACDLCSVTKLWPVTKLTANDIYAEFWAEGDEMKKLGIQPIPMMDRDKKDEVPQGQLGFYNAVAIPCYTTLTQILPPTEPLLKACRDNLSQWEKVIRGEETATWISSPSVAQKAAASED

Ki [nM] | SMILES
< 50 | O=C(NCCc1nc2ccccc2[nH]1)c1cc(F)cn2c(C3CC3)nnc12 [Example 1NN]
< 10 | COc1ccc2nc(CCNC(=O)c3cccn4c(C)nnc34)[nH]c2c1 [Example 1EE]
< 50 | O=C(NCCc1nc2cc(Cl)ccc2[nH]1)c1cc(Br)cn2c(C3CC3)nnc12 [Example 1HH]
< 50 | CC(C)(C)c1nnc2c(C(=O)NCCCc3nc4ccccc4[nH]3)cc(-c3ccncc3)cn12 [Example 4E]
< 50 | O=C(NCCc1nc2cc(Cl)c(F)cc2[nH]1)c1cccn2c(C3CC3)nnc12 [Example 1ZZ]
< 50 | Cn1c(CCCNc2cccc3ccn4c(C(C)(C)C)nnc4c23)nc2ccccc21 [Example 8B]
< 50 | O=C(NCCc1nc2ccccc2[nH]1)c1cccn2c(C3CC3)nnc12 [Example 1BB]
< 10 | O=C(NCCCc1nc2ccccc2[nH]1)c1cccn2c(C3CC3)nnc12 [Example 1O]
< 50 | CC(C)(C)c1nnc2c(C(=O)NCCc3nc4ccccc4[nH]3)cc(F)cn12 [Example 1MM]
< 50 | CC(C)(C)c1nnc2c(C(=O)NCCc3nc4ccccc4[nH]3)cc(-c3ccncc3)cn12 [Example 4A]
< 10 | CC(C)(C)c1nnc2c(C(=O)NCCc3nc4ccccc4s3)cc(Br)cn12 [Example 1N]
< 10 | CC(C)(C)c1nnc2c(C(=O)NCCCc3nc4ccccc4[nH]3)cccn12 [Example 1P]
< 50 | COc1ccc2nc(CCNC(=O)c3cccn4c(C(C)C)nnc34)[nH]c2c1 [Example 1XX]
< 10 | CC(C)(C)c1nnc2c(C(=O)NCCc3nc4cc(Cl)ccc4[nH]3)cccn12 [Example 1Z]
< 50 | Cn1c(CCNC(=O)c2cccn3c(C4CC4)nnc23)nc2cc(Cl)ccc21 [Example 7A]
< 50 | CC(C)(C)c1nnc2c(C(=O)NCCCc3nc4ccccc4[nH]3)cc(C#CCO)cn12 [Example 5B]
< 50 | Cn1c(CCNC(=O)c2cccn3c(C4CC4)nnc23)nc2ccccc21 [Example 7D]
< 50 | CC(C)(C)c1nnc2c(C(=O)NCCc3nc4ccccc4[nH]3)cc(Br)cn12 [Example 1E]
< 50 | Cc1nnc2c(C(=O)NCCc3nc4cc(Cl)ccc4n3C)cccn12 [Example 7K]
< 50 | O=C(NCCc1nc2ccccc2[nH]1)c1cc(Br)cn2c(C3CC3)nnc12 [Example 1I]
< 10 | O=C(NCCc1nc2c(Cl)cc(C(F)(F)F)cc2[nH]1)c1cccn2c(C3CC3)nnc12 [Example 1VV]
< 50 | Cn1c(CCNc2cccc3ccn4c(C(F)(F)F)nnc4c23)nc2ccccc21 [Example 8]
< 10 | CCn1c(CCNC(=O)c2cccn3c(C(C)C)nnc23)nc2ccccc21 [Example 7O]
< 50 | Cn1c(CCNC(=O)c2cccn3c(C(C)(C)C)nnc23)nc2cc(Cl)ccc21 [Example 7E]
< 50 | CC(C)c1nnc2c(C(=O)NCCc3nc4ccccc4[nH]3)cccn12 [Example 1GG]

Ki [nM] | SMILES
< 50 | CC(C)c1nnc2c(C(=O)NCCc3nc4cc(Cl)c(F)cc4[nH]3)cccn12 [Example 1DDD]
< 50 | CCc1nnc2c(C(=O)NCCc3nc4cc(Cl)ccc4[nH]3)cccn12 [Example 1DD]
< 10 | CC(C)(C)c1nnc2c(C(=O)NCCCc3nc4ccccc4[nH]3)cc(-c3cccc(O)c3)cn12 [Example 4D]
< 50 | O=C(NCCc1nc2cc(Cl)ccc2[nH]1)c1cccn2c(Br)nnc12 [Example 1LL]
< 50 | CC(C)(C)c1nnc2c(C(=O)NCCCc3nc4ccccc4[nH]3)cc(-c3cccnc3)cn12 [Example 4F]
< 50 | CC(C)(C)c1nnc2c(C(=O)NCCc3nc4ccc(F)cc4[nH]3)cccn12 [Example 1AA]
< 50 | O=C(NCCc1nc2ccc(F)cc2[nH]1)c1cc(Br)cn2c(C3CC3)nnc12 [Example 1II]
< 10 | CC(C)(C)c1nnc2c(C(=O)NCCc3nc4cc(Cl)ccc4s3)cc(Br)cn12 [Example 1M]
< 50 | O=C(NCCc1nc2ccc(F)cc2[nH]1)c1cc(Br)cn2nc(C3CC3)nc12 [Example 2D]
< 50 | O=C(NCCc1nc2cc(Cl)ccc2[nH]1)c1cccn2c(C(F)(F)F)nnc12 [Example 1B]
< 50 | O=C(NCCc1nc2cc(Cl)ccc2[nH]1)c1cccn2c(C3CC3)nnc12 [Example 1R]
< 50 | O=C(NCCc1nc2ccccc2[nH]1)c1cccn2c(C(F)(F)F)nnc12 [Example 1A]
< 50 | O=C(NCCc1nc2cc(Cl)ccc2[nH]1)c1cccn2nc(Br)nc12 [Example 2G]
< 10 | CC(C)(C)c1nnc2c(C(=O)NCCCc3nc4ccccc4[nH]3)cc(Br)cn12 [Example 1Q]
< 10 | Cc1nc2c(C(=O)NCCc3nc4cc(Cl)ccc4[nH]3)cccn2n1 [Example 2B]
< 50 | Cc1nnc2c(C(=O)NCCc3nc4cc(Cl)ccc4[nH]3)cccn12 [Example 1FF]
< 50 | O=C(NCCc1nc2cc(Cl)ccc2[nH]1)c1cccn2c(C3CCC3)nnc12 [Example 1BBB]
< 50 | CC(C)c1nnc2c(C(=O)NCCc3nc4cc(Cl)ccc4[nH]3)cccn12 [Example 1S]
< 50 | O=C(NCCc1nc2cc(Cl)ccc2[nH]1)c1cc(F)cn2c(C3CC3)nnc12 [Example 1FFF]
< 50 | O=C(NCCc1nc2ccc(F)cc2[nH]1)c1cccn2c(C3CC3)nnc12 [Example 1T]
< 10 | O=C(NCCc1nc2ccccc2[nH]1)c1cc(Br)cn2nc(C3CC3)nc12 [Example 2F]
< 50 | Cn1c(CCCNc2cccc3ccn4c(C(F)(F)F)nnc4c23)nc2ccccc21 [Example 8C]
< 10 | COc1ccc2nc(CCNC(=O)c3cccn4c(C5CCC5)nnc34)[nH]c2c1 [Example 1SS]
< 50 | COc1ccc2nc(CCNC(=O)c3cccn4c(C5CC5)nnc34)[nH]c2c1 [Example 1UU]
